Laboratory results: ChEMBL document CHEMBL5614459, “Conformationally Constrained Isoquinolinones as Orally Efficacious Hepatitis B Capsid Assembly Modulators” (ACS Med Chem Lett, 2024)

Experiments:
[1] = system: Hepatitis B virus; assay: Antiviral activity against Hepatitis B virus genotype D infected in HepDE19 cells assessed as inhibition of viral replication by measuring decrease in intracellular rcDNA level by bDNA assay; assay type: functional, organism-based
[2] = target: Cytochrome P450 3A4 (Homo sapiens, UniProt P08684); assay: Inhibition of CYP3A4 (unknown origin); assay type: ADME
Chain of Cytochrome P450 3A4 (P08684 whole entry): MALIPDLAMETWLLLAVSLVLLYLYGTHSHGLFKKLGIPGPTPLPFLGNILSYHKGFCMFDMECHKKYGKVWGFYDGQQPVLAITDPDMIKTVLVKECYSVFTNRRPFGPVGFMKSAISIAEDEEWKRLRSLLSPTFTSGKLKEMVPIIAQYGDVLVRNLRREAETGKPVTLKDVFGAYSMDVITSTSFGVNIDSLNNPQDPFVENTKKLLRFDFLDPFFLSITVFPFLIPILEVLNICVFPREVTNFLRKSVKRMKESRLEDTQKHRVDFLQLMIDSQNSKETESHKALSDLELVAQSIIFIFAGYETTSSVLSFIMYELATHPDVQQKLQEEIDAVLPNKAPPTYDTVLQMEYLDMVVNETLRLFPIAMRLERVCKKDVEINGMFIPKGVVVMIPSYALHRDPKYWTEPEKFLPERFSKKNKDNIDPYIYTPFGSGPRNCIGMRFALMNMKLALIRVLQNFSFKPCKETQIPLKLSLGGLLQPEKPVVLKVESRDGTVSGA

[3] = target: Cytochrome P450 2D6 (Homo sapiens, UniProt P10635); assay: Inhibition of CYP2D6 (unknown origin); assay type: ADME
Chain of Cytochrome P450 2D6 (P10635 whole entry): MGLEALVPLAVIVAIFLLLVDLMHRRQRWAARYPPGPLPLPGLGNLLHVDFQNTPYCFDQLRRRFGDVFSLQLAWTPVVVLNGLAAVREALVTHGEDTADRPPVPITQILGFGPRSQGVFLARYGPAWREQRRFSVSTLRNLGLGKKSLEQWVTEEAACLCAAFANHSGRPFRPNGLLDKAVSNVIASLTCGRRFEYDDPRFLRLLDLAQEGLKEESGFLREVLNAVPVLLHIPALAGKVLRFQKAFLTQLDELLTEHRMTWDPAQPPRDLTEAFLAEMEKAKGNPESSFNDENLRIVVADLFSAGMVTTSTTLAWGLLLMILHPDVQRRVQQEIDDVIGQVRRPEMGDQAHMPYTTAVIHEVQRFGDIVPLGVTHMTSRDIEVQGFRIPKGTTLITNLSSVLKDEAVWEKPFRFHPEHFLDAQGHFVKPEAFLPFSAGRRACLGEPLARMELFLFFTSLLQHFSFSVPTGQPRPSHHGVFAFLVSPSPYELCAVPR

[4] = target: Cytochrome P450 2C19 (Homo sapiens, UniProt P33261); assay: Inhibition of CYP2C19 (unknown origin); assay type: ADME
Chain of Cytochrome P450 2C19 (P33261 whole entry): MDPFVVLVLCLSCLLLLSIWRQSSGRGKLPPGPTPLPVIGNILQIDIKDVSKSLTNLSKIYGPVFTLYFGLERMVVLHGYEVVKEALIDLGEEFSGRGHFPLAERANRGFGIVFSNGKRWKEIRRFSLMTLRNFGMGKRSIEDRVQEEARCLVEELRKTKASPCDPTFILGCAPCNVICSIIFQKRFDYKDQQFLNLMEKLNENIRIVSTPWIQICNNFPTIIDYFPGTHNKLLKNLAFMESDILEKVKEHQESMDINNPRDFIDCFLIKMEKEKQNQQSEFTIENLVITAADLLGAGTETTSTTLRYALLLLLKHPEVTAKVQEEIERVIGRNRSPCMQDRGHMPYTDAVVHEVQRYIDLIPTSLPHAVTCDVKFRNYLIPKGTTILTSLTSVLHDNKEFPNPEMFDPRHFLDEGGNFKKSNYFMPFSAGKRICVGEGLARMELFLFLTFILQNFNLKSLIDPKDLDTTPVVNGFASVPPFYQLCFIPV

[5] = target: T1, Cytochrome P450 2B6 (Homo sapiens, UniProt P20813); assay: Inhibition of CYP2B6 (unknown origin); assay type: ADME
T1 sequence (P20813 whole entry): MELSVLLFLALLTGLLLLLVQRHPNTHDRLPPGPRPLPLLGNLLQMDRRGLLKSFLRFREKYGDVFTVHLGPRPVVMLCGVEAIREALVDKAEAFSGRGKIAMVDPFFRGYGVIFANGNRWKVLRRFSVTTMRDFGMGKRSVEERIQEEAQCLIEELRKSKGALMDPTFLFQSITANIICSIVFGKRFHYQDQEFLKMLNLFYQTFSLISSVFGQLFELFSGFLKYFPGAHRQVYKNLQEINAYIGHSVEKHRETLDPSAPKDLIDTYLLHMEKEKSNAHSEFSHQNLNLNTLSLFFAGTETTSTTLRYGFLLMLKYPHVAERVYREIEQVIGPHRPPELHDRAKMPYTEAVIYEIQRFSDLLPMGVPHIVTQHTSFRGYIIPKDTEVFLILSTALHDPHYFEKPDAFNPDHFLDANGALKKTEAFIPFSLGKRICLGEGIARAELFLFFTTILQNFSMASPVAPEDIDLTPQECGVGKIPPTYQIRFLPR

[6] = Cytotoxicity against human HepDE19 cells by CellTiter-Glo assay; assay type: toxicity, cell-based
[7] = Selectivity index, ratio of CC50 for cytotoxicity against human HepDE19 cells to EC50 for antiviral activity against Hepatitis B virus genotype D infected in HepDE19 cells; assay type: toxicity, cell-based; conditions: read-out: Ratio CC50/EC50
[8] = Intrinsic clearance in mouse liver microsomes; assay type: ADME, Microsome; conditions: read-out: CLH
[9] = Intrinsic clearance in human liver microsomes; assay type: ADME, Microsome; conditions: read-out: CLH
[10] = Half life in CD-1 mouse at 10 mg/kg, po; assay type: ADME, organism-based; conditions: in vivo
[11] = Cmax in CD-1 mouse at 10 mg/kg, po; assay type: ADME, organism-based; conditions: in vivo
[12] = AUC(last) in CD-1 mouse at 10 mg/kg, po; assay type: ADME, organism-based; conditions: in vivo
[13] = Drug uptake in CD-1 mouse liver at 10 mg/kg, po or 2 mg/kg, iv measured after 24 hrs; assay type: ADME, organism-based; conditions: read-out: Drug uptake
[14] = target: Cytochrome P450 2C9 (Homo sapiens, UniProt P11712); assay: Inhibition of CYP2C9 (unknown origin); assay type: ADME
Chain of Cytochrome P450 2C9 (P11712 whole entry): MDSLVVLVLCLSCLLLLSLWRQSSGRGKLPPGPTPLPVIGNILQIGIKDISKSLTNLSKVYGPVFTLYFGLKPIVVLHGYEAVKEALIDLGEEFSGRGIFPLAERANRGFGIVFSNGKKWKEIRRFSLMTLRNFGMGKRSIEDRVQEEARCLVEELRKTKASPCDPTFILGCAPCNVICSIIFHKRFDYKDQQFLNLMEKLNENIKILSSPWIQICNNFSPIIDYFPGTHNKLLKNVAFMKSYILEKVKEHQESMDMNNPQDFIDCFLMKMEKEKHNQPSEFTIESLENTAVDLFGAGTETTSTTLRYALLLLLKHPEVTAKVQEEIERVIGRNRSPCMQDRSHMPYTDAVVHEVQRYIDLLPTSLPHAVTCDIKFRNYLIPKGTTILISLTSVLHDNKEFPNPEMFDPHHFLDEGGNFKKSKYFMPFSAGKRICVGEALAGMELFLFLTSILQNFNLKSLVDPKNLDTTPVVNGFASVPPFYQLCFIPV

[15] = system: Hepatitis B virus; assay: Anti-viral activity against Hepatitis B virus infected in mouse assessed as log10 reduction of HBV DNA levels in serum at 3 mg/kg, po qd for 7 days; assay type: functional; conditions: time 7 day
[16] = system: Hepatitis B virus; assay: Anti-viral activity against Hepatitis B virus infected in mouse assessed as log10 reduction of HBV DNA levels in serum at 10 mg/kg, po qd for 7 days; assay type: functional; conditions: time 7 day
[17] = system: Hepatitis B virus; assay: Antiviral activity against Hepatitis B virus genotype D harboring core protein-T33N mutant; assay type: functional, organism-based
[18] = Hepatitis B virus, genotype D, HepDE19

SMILES: CN(C(=O)Nc1ccc(F)c(Cl)c1)C1CCCc2[nH]c(=O)c3cc(F)c(F)cc3c21 (stereo in doubt; 8)
- EC50 ([1]; hepde19): 12 nM
- IC50 [2]: < 10000 nM
- IC50 [3]: 4300 nM
- IC50 [4]: < 10000 nM
- IC50 [5]: < 10000 nM

SMILES: CN(C(=O)Nc1cc(F)c(F)c(F)c1)[C@@H]1COCc2[nH]c(=O)c3cc(F)c(F)cc3c21
- EC50 [1, 18]: 18 nM
- CC50 [6]: > 10000 nM
- selectivity ratio [7]: > 1500

SMILES: CN(C(=O)Nc1ccc(F)c(Cl)c1)C1CCCc2[nH]c(=O)c3c(F)c(F)ccc3c21 (racemic)
- EC50 [1, 18]: 440 nM
- CC50 [6]: > 10000 nM
- selectivity ratio [7]: > 1500

SMILES: CC(C)CN(C(=O)Nc1ccc(F)c(Cl)c1)[C@@H]1CCc2[nH]c(=O)c3ccccc3c21
- EC50 [1, 18]: 7 nM
- CC50 [6]: > 10000 nM
- selectivity ratio [7]: > 1500

SMILES: CN(C(=O)c1cc2cccc(F)c2[nH]1)C1COCc2[nH]c(=O)c3cc(F)c(F)cc3c21 (configuration not stated)
- EC50 [1, 18]: 11 nM
- CC50 [6]: > 10000 nM
- selectivity ratio [7]: > 1500
- microsomal CLint [8]: 57 µL/min/mg
- microsomal CLint [9]: 81 µL/min/mg

SMILES: CN(C(=O)Nc1ccc(F)c(Cl)c1)C1CCCc2[nH]c(=O)c3cc(F)ccc3c21 (racemic)
- EC50 [1, 18]: 31 nM
- CC50 [6]: > 10000 nM
- selectivity ratio [7]: > 1500

SMILES: CN(C(=O)c1cc2cc(F)c(F)c(F)c2[nH]1)[C@@H]1COCc2[nH]c(=O)c3cc(F)c(F)cc3c21
- EC50 [1, 18]: 5 nM
- CC50 [6]: > 10000 nM
- selectivity ratio [7]: > 1500
- microsomal CLint [8]: 20 µL/min/mg
- microsomal CLint [9]: 31 µL/min/mg
- half-life [10]: 10.8 h
- Cmax [11]: 1080 ng/mL
- AUC(0-t) [12]: 15900 ng·h/mL
- concentration at 24 h [13]: 3230 ng/g

SMILES: CN(C(=O)Nc1ccc(F)c(Cl)c1)[C@@H]1COCc2[nH]c(=O)c3cc(F)c(F)cc3c21
- EC50 [1, 18]: 7 nM
- CC50 [6]: > 10000 nM
- selectivity ratio [7]: > 1500
- IC50 [2]: > 15000 nM
- IC50 [3]: > 15000 nM
- IC50 [14]: > 15000 nM
- IC50 [4]: > 15000 nM
- IC50 [5]: > 15000 nM
- microsomal CLint [8]: 27 µL/min/mg
- microsomal CLint [9]: 54 µL/min/mg
- half-life [10]: 3.1 h
- Cmax [11]: 690 ng/mL
- AUC(0-t) [12]: 6990 ng·h/mL
- concentration at 24 h [13]: 150 ng/g
- log(activity) [15]: 1.04
- log(activity) [16]: 2.86
- EC50 [17]: 400 nM

SMILES: CN(C(=O)Nc1ccc(F)c(Cl)c1)C1CCCc2[nH]c(=O)c3ccccc3c21 (stereo in doubt)
- EC50 ([1]; hepde19): 760 nM

SMILES: CN(C(=O)Nc1ccc(F)c(Cl)c1)C1CCCCc2[nH]c(=O)c3ccccc3c21 (racemic)
- EC50 [1, 18]: 150 nM
- CC50 [6]: > 10000 nM
- selectivity ratio [7]: > 1500

SMILES: CN(C(=O)Nc1ccc(F)c(C(F)F)c1)[C@@H]1COCc2[nH]c(=O)c3cc(F)c(F)cc3c21
- EC50 [1, 18]: 6 nM
- CC50 [6]: > 10000 nM
- selectivity ratio [7]: > 1500
- half-life [10]: 2.9 h
- Cmax [11]: 2340 ng/mL
- AUC(0-t) [12]: 20800 ng·h/mL
- concentration at 24 h [13]: 135 ng/g
- log(activity) [15]: 1.68
- log(activity) [16]: 2.68
- EC50 [17]: 227 nM

SMILES: CN(C(=O)c1cc2ccccc2[nH]1)[C@@H]1COCc2[nH]c(=O)c3cc(F)c(F)cc3c21
- EC50 [1, 18]: 9 nM
- CC50 [6]: > 10000 nM
- selectivity ratio [7]: > 1500
- microsomal CLint [8]: 70 µL/min/mg
- microsomal CLint [9]: 91 µL/min/mg

SMILES: CN(C(=O)Nc1ccc(F)c(C#N)c1)[C@@H]1COCc2[nH]c(=O)c3cc(F)c(F)cc3c21
- EC50 [1, 18]: 8 nM
- CC50 [6]: > 10000 nM
- selectivity ratio [7]: > 1500
- half-life [10]: 2.4 h
- Cmax [11]: 720 ng/mL
- AUC(0-t) [12]: 4330 ng·h/mL
- concentration at 24 h [13]: 8 ng/g

SMILES: CN(C(=O)Nc1ccc(F)c(Cl)c1)C1CCCc2[nH]c(=O)c3cc(F)cc(F)c3c21 (racemic)
- EC50 [1, 18]: 510 nM
- CC50 [6]: > 10000 nM
- selectivity ratio [7]: > 1500
